Test [1] deals with HT29. The test is described as follows: Proliferation assay HT29. It is filed as cell-based. The conditions noted are these: Homo sapiens, HT-29, 96 h; HT29, colon/rectum carcinoma; 4 days, crystal violet. The protocol:
(§1) Cultivated human tumor cells (originally obtained from ATCC, HeLa-MaTu and HeLa-MaTu-ADR, originally obtained from Epo GmbH, Berlin, Germany) were plated at a density of 1000 to 5000 cells/measuring point, depending on the growth rate of the cell line, in a 96-well multititer plate in 200 μl of growth medium (DMEM/HAMS F12, 2 mM L-glutamine, 10% fetal calf serum). After 24 hours the cells of one plate (zero-point plate) were stained with crystal violet (see below), whereas the medium of the other plates was replaced with fresh culture medium (200 μl), to which the test substances had been added at various concentrations (0 μM, and in the range 0.01-30 μM; the final concentration of the solvent dimethyl sulfoxide was 0.5%). The cells were incubated for 4 days in the presence of the test substances. Cellular proliferation was determined by staining the cells with crystal violet: the cells were fixed by adding 20 μl/measuring point of an 11% glutaraldehyde solution for 15 min at room temperature. After washing the fixed cells with water three times, the plates were dried at room temperature. The cells were stained by adding 100 μl/measuring point of a 0.1% crystal violet solution (pH adjusted to pH3 by adding acetic acid). After washing the stained cells with water three times, the plates were dried at room temperature. The dye was dissolved by adding 100 μl/measuring point of a 10% acetic acid solution. The extinction was determined photometrically at a wavelength of 595 nm. The percentage change in cell growth was calculated by standardization of the measured values to the extinction values of the zero-point plate (=0%) and the extinction of the untreated (0 μM) cells (=100%). The measured data were standardized to 0% inhibition (cell proliferation without inhibitor) and 100% inhibition (zero-point plate). The IC50 values were determined by means of a 4-parameter fit using the company's own software.
(§2) The substances were examined in the following cell lines which, in an exemplary manner, represent the stated indications: […]

The test system of test [2] is HeLa-MaTu-ADR. Description: Proliferation assay HeLa-MaTu-ADR. It is filed as cell-based, human. Conditions: cervix carcinoma, 4 days, crystal violet. The method in brief: (§3)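 IC50 values come from a 4-parameter fit of crystal violet proliferation data, with the zero-point plate set as 100% inhibition. Compound exposure lasted 4 days at up to 30 μM in 10% FCS medium.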

In test [3] the test system is HCT116. Description: Proliferation assay HCT116. It is filed as cell-based. The conditions noted are these: Homo sapiens, HCT-116, 96 h; HCT116, colon/rectum carcinoma; 4 days, crystal violet. The protocol: as §1, §2
In test [4] the test system is SW480. Description: Proliferation assay SW480. It is filed as cell-based. Conditions: Homo sapiens, 96 h; SW480, colon/rectum carcinoma; 4 days, crystal violet. The protocol: as §1, §2
Test [5] concerns the target T1, VEGF receptor tyrosine kinase-2 (VEGF-R2) (Homo sapiens, UniProt P35968).
T1 construct: GST; made in house; host or cells: baculovirus-infected insect cells (Sf9)
The test is described as follows: VEGF receptor-2 kinase assay (Assay 3). Conditions: 8 μM ATP, poly-(Glu4Tyr), 10 min 22° C.; read-out: VEGF-R2 (Assay 3) Concentration for half-maximal inhibition of the enzyme activity, IC50. It is filed as biochemical.

For test [6], the system named is Caki2. Description: Proliferation assay Caki2. It is filed as cell-based. Conditions: Homo sapiens, CAKI-2, 96 h; Caki2, kidney carcinoma; 4 days, crystal violet. The protocol: as §1, §2
Test [7] deals with NCI-ADR-Res. The test is described as follows: Proliferation assay NCI-ADR-Res. Conditions: Homo sapiens, 96 h, ovarial carcinoma, 4 days, crystal violet. It is filed as cell-based. The protocol: as §1, §2
Test [8] deals with A549. The test is described as follows: Proliferation assay A549. It is filed as cell-based. The conditions noted are these: Homo sapiens, 96 h; A549, non-small-cell bronchial carcinoma; 4 days, crystal violet. The method, then: as §1, §2
In test [9] the test system is HeLa. Description: Proliferation assay HeLa. It is filed as cell-based. Conditions: Homo sapiens, 96 h, cervix carcinoma, 4 days, crystal violet. The protocol: as §1, §2
The test system of test [10] is SK-BR-3. Description: Proliferation assay SK-BR-3. It is filed as cell-based. Conditions: Homo sapiens, 96 h; SK-BR-3, estrogen receptor-negative mamma carcinoma; 4 days, crystal violet. The method, then: as §1, §2
For test [11], the target named is T2, CDK2/CycE (Homo sapiens, UniProt P24941).
T2 construct: purchased ProQinase GmbH, Freiburg, Germany; host or cells: baculovirus-infected insect cells (Sf9)
Description: CDK2/CycE kinase assay (Assay 2). It is filed as biochemical. Conditions: 0.5 μM ATP, histon IIIS, 10 min 22° C.; read-out: CDK2/CycE (Assay 2) Concentration for half-maximal inhibition of the enzyme activity, IC50.

Test [12] concerns MCF7. Description: Proliferation assay MCF7. It is filed as cell-based, human. Conditions: MCF7, estrogen receptor-positive mamma carcinoma, 4 days, crystal violet. The method in brief:
as §3

T1 sequence (P35968 20-1356, species assumed): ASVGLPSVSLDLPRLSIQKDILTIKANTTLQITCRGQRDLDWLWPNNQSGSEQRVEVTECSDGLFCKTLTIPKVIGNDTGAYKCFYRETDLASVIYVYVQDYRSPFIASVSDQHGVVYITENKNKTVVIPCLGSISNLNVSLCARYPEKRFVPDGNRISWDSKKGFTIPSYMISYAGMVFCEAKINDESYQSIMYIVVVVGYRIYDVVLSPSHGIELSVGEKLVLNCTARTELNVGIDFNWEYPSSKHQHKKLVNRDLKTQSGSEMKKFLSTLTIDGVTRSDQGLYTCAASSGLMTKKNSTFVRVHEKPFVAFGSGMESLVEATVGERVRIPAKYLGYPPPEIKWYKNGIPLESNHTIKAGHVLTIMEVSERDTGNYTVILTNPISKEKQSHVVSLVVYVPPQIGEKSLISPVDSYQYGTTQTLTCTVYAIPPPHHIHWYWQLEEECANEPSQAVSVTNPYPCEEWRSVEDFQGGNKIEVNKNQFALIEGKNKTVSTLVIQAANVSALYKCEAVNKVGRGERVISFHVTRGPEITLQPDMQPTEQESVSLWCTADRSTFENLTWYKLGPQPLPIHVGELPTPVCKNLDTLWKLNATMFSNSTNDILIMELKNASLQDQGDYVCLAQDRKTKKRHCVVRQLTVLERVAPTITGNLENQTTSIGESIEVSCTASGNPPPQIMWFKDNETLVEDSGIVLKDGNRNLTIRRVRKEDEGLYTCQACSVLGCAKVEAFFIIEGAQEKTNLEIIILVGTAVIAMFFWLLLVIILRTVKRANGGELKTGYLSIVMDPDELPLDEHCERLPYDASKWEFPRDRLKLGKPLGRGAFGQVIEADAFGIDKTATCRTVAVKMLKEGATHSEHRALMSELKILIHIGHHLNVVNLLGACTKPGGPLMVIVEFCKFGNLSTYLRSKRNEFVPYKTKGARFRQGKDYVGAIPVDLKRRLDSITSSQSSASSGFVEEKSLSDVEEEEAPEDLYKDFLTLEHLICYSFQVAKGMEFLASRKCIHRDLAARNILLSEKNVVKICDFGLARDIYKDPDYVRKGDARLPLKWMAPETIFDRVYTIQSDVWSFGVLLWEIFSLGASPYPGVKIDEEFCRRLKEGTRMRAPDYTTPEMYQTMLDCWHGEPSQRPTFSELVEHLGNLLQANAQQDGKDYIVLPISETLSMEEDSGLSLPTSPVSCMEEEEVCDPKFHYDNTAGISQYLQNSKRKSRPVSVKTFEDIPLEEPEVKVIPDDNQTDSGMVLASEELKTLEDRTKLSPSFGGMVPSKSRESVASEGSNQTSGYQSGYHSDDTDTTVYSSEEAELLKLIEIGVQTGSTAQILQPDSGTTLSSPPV

Take `C[C@@H](O)[C@@H](C)Nc1nc(Nc2ccc(S(=N)(=O)C3CC3)cc2)ncc1C(F)(F)F` (mixture of isomers) [Example 4-SI-1, (RS)—S-Cyclopropyl-S-(4-{[4-{[(1R,2R)-2-hydroxy-1-methylpropyl]amino}-5-(trifluoromethyl)-pyrimidin-2-yl]amino}phenyl)sulfoximide]: the IC50 in [1] is 12 nM; in test [2] (Homo sapiens, 96 h), 16 nM; in test [3] it was 20 nM; in test [4], 22 nM; in [5] it was 46 nM; in [6], under 10 nM. The IC50 was 37 nM in [7]; under 10 nM in test [8]; 33 nM in test [9]; 33 nM in [10]; 6 nM in [11]; 34 nM in test [12] (Homo sapiens, MCF7, 96 h).

For `C[C@@H](O)[C@@H](C)Oc1nc(Nc2ccc(S(C)(=N)=O)cc2)ncc1C(F)(F)F` (mixture of isomers) [Example 2-SI-2, (RS)—S-(4-{[4-{[(1R,2R)-2-Hydroxy-1-methylpropyl]oxy}-5-(trifluoromethyl)pyrimidin-2-yl]-amino}phenyl)-S-methylsulfoximide], the values for the IC50 in test [2] and in test [12] were 7 nM and 11 nM, respectively.

As for `C[C@@H](O)[C@@H](C)Oc1nc(Nc2ccc(S(C)(=N)=O)cc2)ncc1C(F)(F)F` (single isomer, unassigned) [Example 2-SI-2], the IC50 in test [1] amounted to 28 nM; in [3] it was 16 nM; in [4] it was 19 nM; in test [5], 281 nM; in [6], 24 nM; in test [7], 29 nM. For the same compound, the IC50 is 23 nM in test [8], 13 nM in [9], 21 nM in [10] and 5 nM in test [11].

The record behind these values is patent US20130210846A1, “USE OF NOVEL PAN-CDK INHIBITORS FOR TREATING TUMORS” (BAYER INTELLECTUAL PROPERTY GMBH, priority 2010, published 2013).
